Test results taken from PubChem BioAssay AID1963976 (Molecular Pharmacology Branch, DTP, NCI, 2024).

System: 435261-313-R-J1-PDC tumor spheroid viability
Assay: Anticancer human tumor 435261-313-R-J1-PDC patient-derived colon adenocarcinoma cell line growth inhibition [PI3K]
Conditions: spheroids with HUVEC and MSC; for IC50: curve of first compound; for viability, T/C: stronger effect = lower value; active = viability on the fitted dose curve at most 10% of control; inactive = the rest
How it was run: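 Three cell types, namely tumor cells, endothelial cells and mesenchymal stem cells, formed each spheroid. Combinations with four PI3K inhibitors were screened at clinically achievable concentrations decreasing by half-log, and spheroid viability was recorded.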
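Also: spheroids exposed to compounds for 7 days.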

Cn1cnc2c(F)c(Nc3ccc(Br)cc3Cl)c(C(=O)NOCCO)cc21 + COc1c(OCCCN2CCOCC2)ccc2c3n(c(=NC(=O)c4cnc(N)nc4)nc12)CCN3
active: viability, T/C (second compound 0.0316 µM, first compound 0.949 µM) 11.4% | viability, T/C (second compound 0.0316 µM, first compound 3 µM) 3.71% | viability, T/C (second compound 0.1 µM, first compound 0.00949 µM) 8.18% | viability, T/C (second compound 0.1 µM, first compound 0.03 µM) 7.27% | viability, T/C (second compound 0.1 µM, first compound 0.0949 µM) 7.24% | viability, T/C (second compound 0.1 µM, first compound 0.3 µM) 6.07% | viability, T/C (second compound 0.1 µM, first compound 0.949 µM) 3.14% | viability, T/C (second compound 0.1 µM, first compound 3 µM) 0.52% | viability, T/C (second compound 0.316 µM, first compound 0.00949 µM) 2.98% | viability, T/C (second compound 0.316 µM, first compound 0.03 µM) 2.65% | viability, T/C (second compound 0.316 µM, first compound 0.0949 µM) 1.65% | viability, T/C (second compound 0.316 µM, first compound 0.3 µM) 0.71% | viability, T/C (second compound 0.316 µM, first compound 0.949 µM) 0.32% | viability, T/C (second compound 0.316 µM, first compound 3 µM) 0.75% | viability, T/C (second compound 1 µM, first compound 0.00949 µM) 0.94% | viability, T/C (second compound 1 µM, first compound 0.03 µM) 0.62% | viability, T/C (second compound 1 µM, first compound 0.0949 µM) 0.53% | viability, T/C (second compound 1 µM, first compound 0.3 µM) 0.36% | viability, T/C (second compound 1 µM, first compound 0.949 µM) 0.26% | viability, T/C (second compound 1 µM, first compound 3 µM) 0.49%
inactive: viability, T/C (second compound 0.00316 µM, first compound 0.00949 µM) 29.7% | viability, T/C (second compound 0.00316 µM, first compound 0.03 µM) 25.4% | viability, T/C (second compound 0.00316 µM, first compound 0.0949 µM) 20.5% | viability, T/C (second compound 0.00316 µM, first compound 0.3 µM) 19% | viability, T/C (second compound 0.00316 µM, first compound 0.949 µM) 19.1% | viability, T/C (second compound 0.00316 µM, first compound 3 µM) 14.2% | viability, T/C (second compound 0.01 µM, first compound 0.00949 µM) 24.2% | viability, T/C (second compound 0.01 µM, first compound 0.03 µM) 20.6% | viability, T/C (second compound 0.01 µM, first compound 0.0949 µM) 22.4% | viability, T/C (second compound 0.01 µM, first compound 0.3 µM) 17.8% | viability, T/C (second compound 0.01 µM, first compound 0.949 µM) 16.4% | viability, T/C (second compound 0.01 µM, first compound 3 µM) 9.17% | viability, T/C (second compound 0.0316 µM, first compound 0.00949 µM) 30.9% | viability, T/C (second compound 0.0316 µM, first compound 0.03 µM) 16.9% | viability, T/C (second compound 0.0316 µM, first compound 0.0949 µM) 14.4% | viability, T/C (second compound 0.0316 µM, first compound 0.3 µM) 11.1%
< 0.00949 µM: IC50 (second compound 0.00316 µM) | IC50 (second compound 0.01 µM) | IC50 (second compound 0.0316 µM) | IC50 (second compound 0.1 µM) | IC50 (second compound 0.316 µM) | IC50 (second compound 1 µM)

CC(Cn1ccc(-c2ccc(C#N)c(Cl)c2)n1)NC(=O)c1cc(C(C)O)[nH]n1 (centres undefined) + CC(Nc1ncnc2nc[nH]c12)c1cc2cccc(Cl)c2c(=O)n1-c1ccccc1
inactive: viability, T/C (second compound 0.0316 µM, first compound 0.0316 µM) 101% | viability, T/C (second compound 0.0316 µM, first compound 0.1 µM) 96.2% | viability, T/C (second compound 0.0316 µM, first compound 0.316 µM) 107% | viability, T/C (second compound 0.0316 µM, first compound 1 µM) 75.8% | viability, T/C (second compound 0.0316 µM, first compound 3.16 µM) 101% | viability, T/C (second compound 0.0316 µM, first compound 10 µM) 100% | viability, T/C (second compound 0.1 µM, first compound 0.0316 µM) 105% | viability, T/C (second compound 0.1 µM, first compound 0.1 µM) 95.9% | viability, T/C (second compound 0.1 µM, first compound 0.316 µM) 90.9% | viability, T/C (second compound 0.1 µM, first compound 1 µM) 103% | viability, T/C (second compound 0.1 µM, first compound 3.16 µM) 115% | viability, T/C (second compound 0.1 µM, first compound 10 µM) 76.1% | viability, T/C (second compound 0.316 µM, first compound 0.0316 µM) 82.7% | viability, T/C (second compound 0.316 µM, first compound 0.1 µM) 90.4% | viability, T/C (second compound 0.316 µM, first compound 0.316 µM) 90.5% | viability, T/C (second compound 0.316 µM, first compound 1 µM) 80.5% | viability, T/C (second compound 0.316 µM, first compound 3.16 µM) 103% | viability, T/C (second compound 0.316 µM, first compound 10 µM) 81.6% | viability, T/C (second compound 1 µM, first compound 0.0316 µM) 81.1% | viability, T/C (second compound 1 µM, first compound 0.1 µM) 99.1% | viability, T/C (second compound 1 µM, first compound 0.316 µM) 70.9% | viability, T/C (second compound 1 µM, first compound 1 µM) 85.9% | viability, T/C (second compound 1 µM, first compound 3.16 µM) 73.5% | viability, T/C (second compound 1 µM, first compound 10 µM) 76.6% | viability, T/C (second compound 3.16 µM, first compound 0.0316 µM) 77.8% | viability, T/C (second compound 3.16 µM, first compound 0.1 µM) 58.4% | viability, T/C (second compound 3.16 µM, first compound 0.316 µM) 77.2% | viability, T/C (second compound 3.16 µM, first compound 1 µM) 85.5% | viability, T/C (second compound 3.16 µM, first compound 3.16 µM) 65.1% | viability, T/C (second compound 3.16 µM, first compound 10 µM) 62.1% | viability, T/C (second compound 10 µM, first compound 0.0316 µM) 58.5% | viability, T/C (second compound 10 µM, first compound 0.1 µM) 41.7% | viability, T/C (second compound 10 µM, first compound 0.316 µM) 48.5% | viability, T/C (second compound 10 µM, first compound 1 µM) 74.7% | viability, T/C (second compound 10 µM, first compound 3.16 µM) 72.4% | viability, T/C (second compound 10 µM, first compound 10 µM) 42%
> 10 µM: IC50 (second compound 0.0316 µM) | IC50 (second compound 0.1 µM) | IC50 (second compound 0.316 µM) | IC50 (second compound 1 µM) | IC50 (second compound 3.16 µM) | IC50 (second compound 10 µM)
